These results are taken from paper PMC10498670.

The nature of data set [1]: Multicomponent nitrilium-trapping macrocyclisation: Pro NH + EtCHO (1.5 equiv), Pinc2 (ethyl 2-isocyano-2-(triphenylphosphanylidene)acetate, 1.5 equiv), AcOH (0.1 equiv); carboxylate traps the nitrilium, then Wittig to the oxazole (18 h). As to conditions: the molecule shown is the open-chain precursor, 1:1 DCE/MeCN, 25.0 mM, 50.0 °C, 12 steps.
Data set [2] is described as follows: Multicomponent nitrilium-trapping macrocyclisation: Pro NH + EtCHO (1.5 equiv) gives an iminium, Pinc (N-isocyanoimino)triphenylphosphorane (1.2 equiv) adds, C-terminal benzoate traps the nitrilium, then aza-Wittig to the 1,3,4-oxadiazole (18 h). As to conditions: the molecule shown is the open-chain precursor, 1:1 DCE/MeCN, 25.0 mM, 50.0 °C, 12 steps.

In the case of `Cc1cccc(NC(=O)CNC(=O)[C@H](CC(C)C)NC(=O)[C@H](C)NC(=O)CNC(=O)[C@@H]2CCCN2)c1C(=O)O` [H-Pro-Gly-Ala-Leu-Gly-(2-amino-6-methylbenzoic acid)-OH], the ring closure, overall yield in data set [1] (22-membered ring, 18.0 h) stood at 0%; in data set [2] (22-membered ring), 18%.

Consider `CC(C)C[C@H](NC(=O)[C@H](C)NC(=O)CNC(=O)[C@@H]1CCCN1)C(=O)NCC(=O)Nc1ccccc1C(=O)O` [H-Pro-Gly-Ala-Leu-Gly-(2-aminobenzoic acid)-OH], for which the ring closure, overall yield in data set [1] (22-membered ring, 18.0 h) was found to be 0%; in data set [2] (22-membered ring), 15%.

Take `Cc1c(NC(=O)CNC(=O)[C@H](CC(C)C)NC(=O)[C@H](C)NC(=O)CNC(=O)[C@@H]2CCCN2)cccc1C(=O)O` [H-Pro-Gly-Ala-Leu-Gly-(3-amino-2-methylbenzoic acid)-OH]: the ring closure, overall yield in data set [1] (23-membered ring, 18.0 h) stood at 23%; in data set [2] (23-membered ring), 25%.

`CC(C)C[C@H](NC(=O)[C@H](C)NC(=O)CNC(=O)[C@@H]1CCCN1)C(=O)NCC(=O)Nc1cccc(C(=O)O)c1` [H-Pro-Gly-Ala-Leu-Gly-(3-aminobenzoic acid)-OH]: the ring closure, overall yield turned out to be 35% in data set [1] (23-membered ring, 18.0 h) and 38% in data set [2] (23-membered ring).

As to `CC(C)C[C@H](NC(=O)[C@H](C)NC(=O)CNC(=O)[C@@H]1CCCN1)C(=O)NCC(=O)Nc1ccc(C(=O)O)c(Cl)c1` [H-Pro-Gly-Ala-Leu-Gly-(4-amino-2-chlorobenzoic acid)-OH], the ring closure, overall yield was 0% in data set [1] (24-membered ring) and 17% in data set [2] (24-membered ring).

`CC(C)C[C@H](NC(=O)[C@H](C)NC(=O)CNC(=O)[C@@H]1CCCN1)C(=O)NCC(=O)Nc1ccc(C(=O)O)cc1` [H-Pro-Gly-Ala-Leu-Gly-(4-aminobenzoic acid)-OH]: the ring closure, overall yield in data set [1] (24-membered ring) was found to be 0%; in data set [2] (24-membered ring), 18%.

Consider `CC(C)C[C@H](NC(=O)CNC(=O)[C@@H]1CCCN1)C(=O)N[C@@H](CC(=O)OC(C)(C)C)C(=O)N[C@H](C(=O)Nc1cccc(C(=O)O)c1)[C@@H](C)OC(C)(C)C` [H-Pro-Gly-Leu-Asp(OtBu)-Thr(OtBu)-(3-aminobenzoic acid)-OH], for which the ring closure, overall yield in data set [1] (23-membered ring, 18.0 h) is 21%; in data set [2] (23-membered ring), 27%.
